Experimental data published in patent US9655869B2, “Estrogen antagonists as treatments for sclerosing disorders” (University of Pittsburgh—Of The Commonwealth System Of …, priority 2009, dated 2017).

Legend:
ERα = ERα protein in cellular lysates of skin fibroblasts (western blot); format: cell-based, human; details: for E2-induced increase of ERα: skin fibroblasts pre-treated with inhibitor 1 hr prior to E2, 48 hrs
Experimental: Skin fibroblasts (2×10^5 cells per well) were seeded in 35 mm cell culture dishes in DMEM/10% FBS. The following day, the medium was replaced with phenol-red free DMEM (Cellgro) without serum for 24 hours to deprive the cells of estrogen. Fresh phenol-red free DMEM plus 10% charcoal stripped fetal bovine serum (Hyclone, Logan, Utah) was added with one of the following: ethanol as vehicle control (0.1%) or E2 (10 nM; Sigma-Aldrich) for 24 hours (for RNA extraction) or 48 hours (for protein extraction).
Cells were grown to confluency in 35 mm culture dishes. Cells were rinsed with 1×PBS and scraped in sample buffer (20 mM dithiothreitol, 6% SDS, 0.25 M Tris, pH 6.8, 10% glycerol, 10 mM NaF and bromophenyl blue). Samples were separated by electrophoresis on 8% SDS-polacrylamide gels (National Diagnostic, Atlanta, Ga.) and transferred to nitrocellulose membranes. Membranes were blocked with 5% non-fat milk in 1×TBS-Tween20 (0.2 M Tris, 0.14 M NaCl, 0.1% Tween 20), followed by incubation with mouse monoclonal anti-human EDA-fibronectin antibody, rabbit polyclonal anti-human fibronectin antibody, rabbit polyclonal anti-ERα antibody, rabbit polyclonal anti-ERβ antibody (Santa Cruz Biotechnology, Santa Cruz, Calif.), mouse monoclonal anti-human vitronectin, mouse monoclonal anti-β-actin (Sigma-Aldrich), or mouse monoclonal anti-GAPDH (Ambion, Austin, Tex.) in 1×TBS-Tween20 followed by horseradish peroxide-conjugated donkey anti-rabbit IgG (Amersham, Piscataway, N.J.) or donkey anti-mouse IgG (Amersham). Immunoreactive proteins were detected by chemiluminescence (PerkinElmer Life Sciences, Boston, Mass.), followed by autoradiography.
We also examined the effect of the chemical inhibitors on ERα and ERβ.

fibronectin (FN) = test: FN mRNA (RT-PCR) and protein (western blot) expression in primary skin fibroblasts; format: cell-based, human; details: for E2-mediated increase of FN protein: skin fibroblasts pre-treated with inhibitor 1 hr prior to E2, western blot 48 hrs post-treatment, cellular lysates; for FN protein levels in the ECM: primary fibroblasts treated 48 hrs, PPT 100 nM, genistein 100 nM, western blot
Experimental: Skin-punch biopsies (6 mm) were obtained with informed consent from the clinically affected and unaffected skin of 6 patients with SSc and 5 healthy twins. All SSc patients had diffuse skin involvement and met the American College of Rheumatology criteria for the diagnosis of SSc (1). Biopsies were performed on the leading edge of dermal thickening and clinically normal skin. The skin samples were minced, placed in 60-mm tissue culture dishes and cultured at 37° C. in a humidified atmosphere in Dulbecco's modified Eagle's medium (DMEM) (Cellgro, Herndon, Va.) supplemented with 10% fetal bovine serum (FBS; Sigma-Aldrich, St. Louis, Mo.), 100 IU/ml penicillin, and 100 μg/ml streptomycin (Invitrogen, Carlsbad, Calif.). Skin fibroblasts (2×10^5 cells per well) were seeded in 35 mm cell culture dishes in DMEM/10% FBS. The following day, the medium was replaced with phenol-red free DMEM (Cellgro) without serum for 24 hours to deprive the cells of estrogen. […] Sigma-Aldrich) for 24 hours (for RNA extraction) or 48 hours (for protein extraction). TGF-β (10 ng/ml; R&D systems, Minneapolis, Minn.) was used as a positive control. […] Cell Signaling Technology, Beverly, Mass.) were added where indicated. To determine the role of ERα and β on FN individually, cells we cultured with propyl-pyrazole-triol (PPT), an ERα specific ligand (100 nM; Tocris), and genistein, an ERβ specific ligand (100 nM; […] Extracellular matrix (ECM) was extracted as we have previously described. (35) Briefly, cells were rinsed with PBS and incubated with 8M Urea in PBS for 20 mins. Cells were aspirated and the ECM was rinsed three times with PBS. ECM was scraped in 100 μl sample buffer (20 mM dithiothreitol, 6% SDS, 0.25 M Tris, pH 6.8, 10% glycerol, 10 mM NaF and bromophenyl blue) and analyzed by western blot. Skin fibroblasts in early passage (passages 3-4) were harvested and RNA was extracted using TRIzol (Invitrogen). mRNA was reverse transcribed using Superscript II (Invitrogen) following the manufacturer's recommendations. The cDNA generated was used as a template for amplification by PCR with primers specific for ERα [NT] ID NO:1) and […] NO:2), ERβ […] NO:3) and [NT] ID NO:4), Fibronectin, [NT] ID NO:5) and 5-[…] ID NO:6) and β-actin, […] NO:7) and [NT] ID NO:8). PCR amplification was performed in a 50 μl reaction containing 10 units of the reverse transcription reaction, Taq DNA polymerase (Invitrogen), 10×PCR buffer (750 mM Tris-HCl, pH8.8, 200 mM (NH4)2SO4 and 0.1% Tween 20), 1.5 mM MgSO4, 1 mM of each deoxynucleotide triphosphate in a Peltier Thermal Cycler-200 (MJ Research, Waltham, Mass.). Conditions were an initial denaturation at 95° C. for 4 min, followed by 35 cycles of 94° C. for 45 sec, 55° C. for 30 sec, and 68° C. for 2 min. Final extension was at 68° C. for 5 min. 20 μl of each reaction was electrophoresed on a 1% agarose gel in 1×TAE (Tris/acetate/EDTA) buffer and products were visualized following staining with ethidium bromide. Molecular weight of each PCR product: ERα 1062 bp, ERβ 934 bp, FN 513 bp and β-actin 494 bp. Cells were grown to confluency in 35 mm culture dishes. Cells were rinsed with 1×PBS and scraped in sample buffer (20 mM dithiothreitol, 6% SDS, 0.25 M Tris, pH 6.8, 10% glycerol, 10 mM NaF and bromophenyl blue). Samples were separated by electrophoresis on 8% SDS-polacrylamide gels (National Diagnostic, Atlanta, Ga.) and transferred to nitrocellulose membranes. […] Immunoreactive proteins were detected by chemiluminescence (PerkinElmer Life Sciences, Boston, Mass.), followed by autoradiography.

MCF7 = details: reference (56); read-out: 1050 in the MCF7 proliferation assay; cited from earlier work
[1] = serum half life; cited from earlier work
human skin = test: ex vivo human skin organ culture: dermal and collagen bundle thickness; details: explanted human skin, 7 days; for collagen bundle thickness, ratio compared with vehicle / dermal thickness, ratio compared with vehicle: p<0.05, 3 experiments
Experimental: Dermal and collagen bundle thickness were measured in skin sections stained with hematoxylin and eosin.
Dermal thickness was defined as the distance from the granular layer to the junction between the dermis and subcutaneous fat. Images were taken on a Nikon Eclipse 800 microscope (Nikon Instruments, Inc., Huntley, Ill.) using identical camera settings and Image was used to measure thickness. Thickness was measured in 5 random fields in each sample.
(§1) To further examine the effect of estradiol in skin tissues, dermal and collagen bundle thickness in dermis were assessed using an ex vivo organ culture system. Ex-planted skin tissues on 35-mm well plates were treated with estradiol, estrogen receptor alpha or beta agonists (PPT, genistein, respectively) or vehicles (ethanol for estraditol, PPT, DMSO for genistein, respectively) for 7 days, and skin sections were stained with hematoxylin and eosin. […] We also assessed the extent of deposition of fibronectin using immunohistochemistry. […] Thus, estradiol is an important factor for the induction of skin fibrosis, and the effect of estradiol is mediated by estrogen receptor alpha.

SSc = details: references (25), (57); cited from earlier work
fibronectin = test: ex vivo human skin organ culture: fibronectin immunohistochemistry; details: explanted human skin, 7 days; anti-fibronectin antibody, AEC
Experimental: 6 μm sections of paraffin-embedded skin tissues were de-paraffinized, endogenous peroxidase was quenched using 10% H2O2, and endogenous biotin was blocked using the biotin blocking kit (Dakocytomation, Carpinteria, Calif.). Sections were blocked with 5% serum and incubated with anti-fibronectin antibody followed by secondary antibody. Bound secondary antibody was detected using the AEC Red kit. A light hematoxylin counterstain was used to identify nuclei. Images were taken on a Nikon Eclipse 800 microscope.
as §1

For `N#CC(=C(/N)Sc1ccccc1N)/C(C#N)=C(\N)Sc1ccccc1N` [MEK inhibitor, U0126], the “E2-induced increase of ERα” value (ERα) was “blocked” and the “E2-mediated increase of FN protein” value (fibronectin (FN)) was “more modest effect”.
In the case of `C[C@]12CC[C@@H]3c4ccc(O)cc4C[C@@H](CCCCCCCCC[S+]([O-])CCCC(F)(F)C(F)(F)F)[C@H]3[C@@H]1CC[C@@H]2O` (stereo partly drawn) [ICI 182,780, fulvestrant], the IC50 (MCF7) is given as ~14 nM, the half life [1] is given as “approximately forty” and the “TGF-β-induced FN levels” value (fibronectin (FN); TGF-β 10 ng/ml, ICI 182,780 100 nM) is given as “did not affect”. For the same molecule, the “effect of E2 on FN mRNA and protein expression in presence of antagonist” value (fibronectin (FN); normal skin fibroblasts, E2 10 nM 48 hrs, ICI 182,780 100 nM, ECM and supernatants) was “blocked the effect of E2” and the “effect of estradiol on dermal and collagen bundle thickness in presence of antagonist” value (human skin; E2+ICI) was “blocked the effect of estradiol”.
In the case of `Oc1ccc(-c2nc(-c3ccncc3)c(-c3ccc(F)cc3)[nH]2)cc1` [p38 MAPK inhibitor, SB202190], the “E2-induced increase of ERα” value (ERα) is reported as “blocked” and the “E2-mediated increase of FN protein” value (fibronectin (FN)) is reported as “attenuated”.
In the case of `CC/C(=C(\c1ccccc1)c1ccc(OCCN(C)C)cc1)c1ccccc1` [Tamoxifen, tamoxifen], the “SSc symptoms / treatment outcome in SSc patients” value (SSc) is given as “did not improve SSc symptoms”.
With `C[C@]12CC[C@@H]3c4ccc(O)cc4CC[C@H]3[C@@H]1CC[C@@H]2O` [E2, 17-β-Estradiol] the “fibronectin expression ex vivo (immunohistochemistry)” value (fibronectin) was “induce fibronectin expression”, the ERα level (ERα; skin fibroblasts stimulated with E2 48 hrs) was “increased” and the “FN mRNA and protein levels” value (fibronectin (FN); healthy twin and SSc fibroblasts, E2 10 nM, 24 hrs (mRNA), 48 hrs (protein)) was “increased”. The “FN protein levels in the ECM” value (fibronectin (FN); E2 10 nM) was “increased”, the “collagen bundle thickness, ratio compared with vehicle” value (human skin) was 2.62 ± 0.18 arbitrary unit and the “dermal thickness, ratio compared with vehicle” value (human skin) was 1.61±0.12 arbitrary unit.
For `O=c1c(-c2ccc(O)cc2)coc2cc(O)cc(O)c12` [genistein], the “FN protein levels in the ECM” value (fibronectin (FN); E2 10 nM) was “modestly increased” and the “thickening of dermis and collagen bundles” value (human skin; vs DMSO vehicle) was “did not induce thickening”.
With `CCCc1c(-c2ccc(O)cc2)nn(-c2ccc(O)cc2)c1-c1ccc(O)cc1` [PPT, propyl-pyrazole-triol] the “collagen bundle thickness, ratio compared with vehicle” value (human skin) was 1.84 ± 0.15 arbitrary unit and the “dermal thickness, ratio compared with vehicle” value (human skin) was 1.54±0.05 arbitrary unit.
In the case of `CC(=O)Oc1ccc(C(=C2CCCCC2)c2ccc(OC(C)=O)cc2)cc1` [Cyclofenil], the “SSc symptoms / treatment outcome in SSc patients” value (SSc) is given as “disappointing results”.
